Assay results taken from patent publication US20250171426A1, “PYRIMIDINEDIONE-BASED COMPOUNDS AS AXL, C-MET, AND MER INHIBITORS AND METHODS OF USE THEREOF” (CMG Pharmaceutical Co., Ltd., priority 2022, published 2025).

Tests used:
Format in all cases: biochemical
Conditions in all cases: 10 μM ATP, 60 min, ADP-GLO luminescence
[1] = molecular target: T1, AXL (Homo sapiens, UniProt P30530); test: Enzymatic assay (ADP-Glo kinase reaction), AXL
T1 sequence (P30530 26-894): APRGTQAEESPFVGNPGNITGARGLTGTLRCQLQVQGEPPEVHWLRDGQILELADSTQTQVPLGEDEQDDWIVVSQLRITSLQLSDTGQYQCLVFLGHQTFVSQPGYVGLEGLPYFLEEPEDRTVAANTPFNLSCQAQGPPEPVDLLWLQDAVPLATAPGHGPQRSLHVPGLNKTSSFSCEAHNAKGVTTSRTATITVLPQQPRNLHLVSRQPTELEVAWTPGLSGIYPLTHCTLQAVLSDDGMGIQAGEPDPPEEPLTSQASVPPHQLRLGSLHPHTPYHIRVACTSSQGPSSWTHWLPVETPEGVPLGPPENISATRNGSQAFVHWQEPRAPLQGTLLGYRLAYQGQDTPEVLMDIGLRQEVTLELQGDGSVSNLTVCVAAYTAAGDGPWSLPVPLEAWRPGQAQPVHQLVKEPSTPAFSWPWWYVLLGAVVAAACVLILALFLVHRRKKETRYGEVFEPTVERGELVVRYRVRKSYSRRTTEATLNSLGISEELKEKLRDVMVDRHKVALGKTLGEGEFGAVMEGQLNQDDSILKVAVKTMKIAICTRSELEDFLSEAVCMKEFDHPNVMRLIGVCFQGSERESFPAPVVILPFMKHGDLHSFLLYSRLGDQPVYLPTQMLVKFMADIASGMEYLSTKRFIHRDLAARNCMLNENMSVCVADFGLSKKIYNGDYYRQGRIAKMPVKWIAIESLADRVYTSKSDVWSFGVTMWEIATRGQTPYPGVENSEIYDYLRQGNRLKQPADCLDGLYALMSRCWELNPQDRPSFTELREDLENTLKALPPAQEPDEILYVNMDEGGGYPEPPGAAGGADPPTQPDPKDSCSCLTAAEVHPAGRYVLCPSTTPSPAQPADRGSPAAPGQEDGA
Protocol: (§1) All the kinase reactions were performed in 5 μL using tyrosine kinase buffer with 0.2 μg/μL poly (Glu4, Tyr1) substrate, 10 μM ATP, serial dilution of the inhibitor, and incubated at room temperature for 60 min. After the indicated incubation times, 5 μL ADP-GLO™ reagent (Promega, Madison, WI) was added to the reactions and the plate was incubated at room temperature for 40 min. […] All 384-well assay plates were read using a GLOMAX™ Discover Microplate Luminometer from Promega (Madison, WI). To plot, analyze the data and calculate all kinase reaction biochemical values, both Microsoft Excel and Prism from GraphPad 7 Software (La Jolla, CA) were used.

[2] = molecular target: T2, MER (Homo sapiens, UniProt Q12866); test: Enzymatic assay (ADP-Glo kinase reaction), MER
T2 sequence (Q12866 21-999): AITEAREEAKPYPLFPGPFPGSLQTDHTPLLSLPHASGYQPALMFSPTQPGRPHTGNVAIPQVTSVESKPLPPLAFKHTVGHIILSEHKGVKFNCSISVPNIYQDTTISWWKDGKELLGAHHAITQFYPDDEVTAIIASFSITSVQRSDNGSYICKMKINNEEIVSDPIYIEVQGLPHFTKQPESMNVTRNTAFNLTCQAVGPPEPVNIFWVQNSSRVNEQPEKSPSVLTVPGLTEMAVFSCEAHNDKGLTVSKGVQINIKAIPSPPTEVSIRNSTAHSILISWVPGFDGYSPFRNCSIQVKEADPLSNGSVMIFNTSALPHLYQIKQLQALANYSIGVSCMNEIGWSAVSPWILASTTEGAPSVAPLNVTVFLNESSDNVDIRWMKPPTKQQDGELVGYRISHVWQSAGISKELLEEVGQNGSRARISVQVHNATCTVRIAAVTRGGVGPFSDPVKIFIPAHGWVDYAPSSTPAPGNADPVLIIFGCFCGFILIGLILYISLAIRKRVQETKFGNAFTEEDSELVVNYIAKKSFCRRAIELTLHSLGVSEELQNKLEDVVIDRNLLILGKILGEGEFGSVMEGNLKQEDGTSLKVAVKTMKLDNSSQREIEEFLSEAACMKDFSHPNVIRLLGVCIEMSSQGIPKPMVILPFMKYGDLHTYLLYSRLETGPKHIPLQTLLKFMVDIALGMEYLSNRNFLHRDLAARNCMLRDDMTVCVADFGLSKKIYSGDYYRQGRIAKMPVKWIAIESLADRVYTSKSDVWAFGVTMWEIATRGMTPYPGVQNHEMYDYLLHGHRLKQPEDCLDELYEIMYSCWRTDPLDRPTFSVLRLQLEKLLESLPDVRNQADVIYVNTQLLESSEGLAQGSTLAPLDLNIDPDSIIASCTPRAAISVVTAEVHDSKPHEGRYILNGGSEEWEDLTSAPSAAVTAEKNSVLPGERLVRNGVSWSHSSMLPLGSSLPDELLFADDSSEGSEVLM
Protocol: (§2) All the kinase reactions were performed in 5 μL using tyrosine kinase buffer with 0.2 μg/μL poly (Glu4, Tyr1) substrate, 10 μM ATP, serial dilution of the inhibitor, and incubated at room temperature for 60 min. After the indicated incubation times, 5 μL ADP-GLO™ reagent (Promega, Madison, WI) was added to the reactions and the plate was incubated at room temperature for 40 min. Then, 10 μL of kinase detection reagent was added and after an incubation time of 40 min, luminescence was recorded and IC50 values were determined (Table 1). All 384-well assay plates were read using a GLOMAX™ Discover Microplate Luminometer from Promega (Madison, WI). To plot, analyze the data and calculate all kinase reaction biochemical values, both Microsoft Excel and Prism from GraphPad 7 Software (La Jolla, CA) were used.
as §2, with “3).” for “1).”

[3] = molecular target: c-MET (Homo sapiens, UniProt P08581); test: Enzymatic assay (ADP-Glo kinase reaction), c-MET
Protocol: as §1

Chain of c-MET (P08581 25-1390): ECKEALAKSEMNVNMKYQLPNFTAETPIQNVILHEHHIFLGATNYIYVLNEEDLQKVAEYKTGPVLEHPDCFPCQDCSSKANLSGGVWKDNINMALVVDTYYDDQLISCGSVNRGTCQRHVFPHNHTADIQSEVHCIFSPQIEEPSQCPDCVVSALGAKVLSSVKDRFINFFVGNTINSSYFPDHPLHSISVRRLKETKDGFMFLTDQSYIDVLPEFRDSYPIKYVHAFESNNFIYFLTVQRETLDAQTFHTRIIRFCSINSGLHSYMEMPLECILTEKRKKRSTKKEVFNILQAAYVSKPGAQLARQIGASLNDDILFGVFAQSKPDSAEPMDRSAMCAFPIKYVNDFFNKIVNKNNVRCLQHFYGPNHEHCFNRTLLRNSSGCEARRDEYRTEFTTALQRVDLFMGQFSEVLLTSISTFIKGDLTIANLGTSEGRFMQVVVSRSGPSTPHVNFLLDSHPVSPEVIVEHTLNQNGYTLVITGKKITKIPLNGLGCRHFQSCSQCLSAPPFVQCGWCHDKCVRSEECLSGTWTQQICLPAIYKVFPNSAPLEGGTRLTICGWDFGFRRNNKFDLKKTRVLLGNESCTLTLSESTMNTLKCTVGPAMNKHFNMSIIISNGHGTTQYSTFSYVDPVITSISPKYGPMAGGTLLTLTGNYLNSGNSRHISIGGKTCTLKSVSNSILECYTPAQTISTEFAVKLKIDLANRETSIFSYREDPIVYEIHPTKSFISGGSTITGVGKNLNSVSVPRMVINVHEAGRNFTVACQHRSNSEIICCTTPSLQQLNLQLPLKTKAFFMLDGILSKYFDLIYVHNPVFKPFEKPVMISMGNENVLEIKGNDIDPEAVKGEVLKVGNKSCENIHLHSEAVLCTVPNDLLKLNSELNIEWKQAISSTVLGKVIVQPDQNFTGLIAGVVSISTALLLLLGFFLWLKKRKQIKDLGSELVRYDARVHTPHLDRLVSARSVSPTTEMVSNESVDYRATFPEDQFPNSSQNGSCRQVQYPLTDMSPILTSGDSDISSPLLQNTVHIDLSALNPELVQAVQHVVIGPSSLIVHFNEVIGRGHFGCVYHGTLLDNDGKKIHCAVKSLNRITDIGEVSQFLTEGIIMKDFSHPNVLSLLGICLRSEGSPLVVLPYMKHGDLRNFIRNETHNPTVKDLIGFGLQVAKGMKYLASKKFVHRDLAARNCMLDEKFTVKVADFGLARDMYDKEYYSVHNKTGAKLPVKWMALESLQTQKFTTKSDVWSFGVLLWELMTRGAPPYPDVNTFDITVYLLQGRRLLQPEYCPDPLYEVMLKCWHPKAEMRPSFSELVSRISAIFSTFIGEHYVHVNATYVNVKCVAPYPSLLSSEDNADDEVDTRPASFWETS

IC50 [1] [nM] | IC50 [2] [nM] | IC50 [3] [nM] | Compound
< 10 | < 10 | < 10 | CC(C)n1cc(C(=O)Nc2ccc(Oc3ccnc(N)c3C#CCC3CCNCC3)c(F)c2)c(=O)n(-c2ccc(F)cc2)c1=O [Example 27, N-(4-(2-amino-3-(3-(piperidin-4-yl)prop-1-ynyl)pyridin-4-yloxy)-3-fluorophenyl)-3-(4-fluorophenyl)-1-isopropyl-2,4-dioxo-1,2,3,4-tetrahydropyrimidine-5-carboxamide]
< 10 | < 10 | < 10 | CC(C)n1cc(C(=O)Nc2ccc(Oc3ccnc(N)c3C#N)c(F)c2)c(=O)n(-c2ccc(F)cc2)c1=O [Example 5, N-(4-(2-amino-3-cyanopyridin-4-yloxy)-3-fluorophenyl)-3-(4-fluorophenyl)-1-isopropyl-2,4-dioxo-1,2,3,4-tetrahydropyrimidine-5-carboxamide]
< 10 | < 10 | < 100 | CC(C)n1cc(C(=O)Nc2ccc(Oc3ccnc(N)c3C#CC3CCNCC3)c(F)c2)c(=O)n(-c2ccc(F)cc2)c1=O [Example 15, N-(4-(2-amino-3-(piperidin-4-ylethynyl)pyridin-4-yloxy)-3-fluorophenyl)-3-(4-fluorophenyl)-1-isopropyl-2,4-dioxo-1,2,3,4-tetrahydropyrimidine-5-carboxamide]
< 10 | < 100 | < 100 | Cn1nc(C(=O)Nc2ccc(Oc3ccnc(N)c3C#CCC3CCNCC3)c(F)c2)c(=O)n(-c2ccc(F)cc2)c1=O [Example 46, N-(4-((2-amino-3-(3-(piperidin-4-yl)prop-1-yn-1-yl)pyridin-4-yl)oxy)-3-fluorophenyl)-4-(4-fluorophenyl)-2-methyl-3,5-dioxo-2,3,4,5-tetrahydro-1,2,4-triazine-6-carboxamide]
 | < 100 |  | CC(C)n1cc(C(=O)Nc2ccc(Oc3ccnc(N)c3Cl)c(F)c2)c(=O)n(-c2ccc(F)cc2)c1=O [Example 6, N-(4-(2-amino-3-chloropyridin-4-yloxy)-3-fluorophenyl)-3-(4-fluorophenyl)-1-isopropyl-2,4-dioxo-1,2,3,4-tetrahydropyrimidine-5-carboxamide]
< 10 |  | < 10 | CC(C)n1cc(C(=O)Nc2ccc(Oc3ccnc(N)c3C#CCN3CCOCC3)c(F)c2)c(=O)n(-c2ccc(F)cc2)c1=O [Example 24, N-(4-(2-amino-3-(3-morpholinoprop-1-ynyl)pyridin-4-yloxy)-3-fluorophenyl)-3-(4-fluorophenyl)-1-isopropyl-2,4-dioxo-1,2,3,4-tetrahydropyrimidine-5-carboxamide]

Continued, compound first:

Compound | IC50 [1] [nM] | IC50 [2] [nM] | IC50 [3] [nM]
Cc1nc(Cn2cc(C(=O)Nc3ccc(Oc4ccnc(N)c4C#CC(C)(C)N4CCOCC4)c(F)c3)c(=O)n(-c3ccc(F)cc3)c2=O)cs1 [Example 39, N-(4-((2-amino-3-(3-methyl-3-morpholinobut-1-yn-1-yl)pyridin-4-yl)oxy)-3-fluorophenyl)-3-(4-fluorophenyl)-1-((2-methylthiazol-4-yl)methyl)-2,4-dioxo-1,2,3,4-tetrahydropyrimidine-5-carboxamide] | < 100 | < 100 | < 100
CC(C)n1cc(C(=O)Nc2ccc(Oc3ccnc(N)c3-c3cnn(C)c3)c(F)c2)c(=O)n(-c2ccc(F)cc2)c1=O [Example 7] | < 10 | < 100 | < 10
C=CCn1cc(C(=O)Nc2ccc(Oc3ccnc(N)c3C#CC(C)(C)N3CCOCC3)c(F)c2)c(=O)n(CC=C)c1=O [Example 70, 1,3-diallyl-N-(4-(2-amino-3-(3-methyl-3-morpholinobut-1-ynyl)pyridin-4-yloxy)-3-fluorophenyl)-2,4-dioxo-1,2,3,4-tetrahydropyrimidine-5-carboxamide] | < 1000 | < 10 | < 1000
CN1CCN(C(C)(C)C#Cc2c(Oc3ccc(NC(=O)c4cn(C5CCOCC5)c(=O)n(-c5ccc(F)cc5)c4=O)cc3F)ccnc2N)CC1 [Example 57, N-(4-(2-amino-3-(3-methyl-3-(4-methylpiperazin-1-yl)but-1-ynyl)pyridin-4-yloxy)-3-fluorophenyl)-3-(4-fluorophenyl)-2,4-dioxo-1-(tetrahydro-2H-pyran-4-yl)-1,2,3,4-tetrahydropyrimidine-5-carboxamide] | < 100 | < 10 | < 100
CN1CCC(CC#Cc2c(Oc3ccc(NC(=O)c4nn(C)c(=O)n(-c5ccc(F)cc5)c4=O)cc3F)ccnc2N)CC1 [Example 45, N-(4-((2-amino-3-(3-(1-methylpiperidin-4-yl)prop-1-yn-1-yl)pyridin-4-yl)oxy)-3-fluorophenyl)-4-(4-fluorophenyl)-2-methyl-3,5-dioxo-2,3,4,5-tetrahydro-1,2,4-triazine-6-carboxamide] | < 100 | < 100 | < 1000
CC(C)n1cc(C(=O)Nc2ccc(Oc3ccnc(N)c3/C=C/C(=O)N3CCNCC3)c(F)c2)c(=O)n(-c2ccc(F)cc2)c1=O [Example 3, (E)-N-(4-(2-amino-3-(3-oxo-3-(piperazin-1-yl)prop-1-enyl)pyridin-4-yloxy)-3-fluorophenyl)-3-(4-fluorophenyl)-1-isopropyl-2,4-dioxo-1,2,3,4-tetrahydropyrimidine-5-carboxamide] | < 10 | < 10 | < 100
Cn1nc(C(=O)Nc2ccc(Oc3ccnc(N)c3C#CC(C)(C)N3CCOCC3)c(F)c2)c(=O)n(-c2ccc(F)cc2)c1=O [Example 48, N-(4-(2-amino-3-(3-methyl-3-morpholinobut-1-ynyl)pyridin-4-yloxy)-3-fluorophenyl)-4-(4-fluorophenyl)-2-methyl-3,5-dioxo-2,3,4,5-tetrahydro-1,2,4-triazine-6-carboxamide] | < 100 | < 1000 | < 100
